In one data set the test system is SNB-75. The data set is described as follows: Anti-proliferative activity, SNB-75. As to conditions: Homo sapiens. The class given is cell-based. Here is the method:
(§1) FIG. 8 is a graph depicting the mRNA levels of α-1 and α-3 isoforms quantitated by real time RT-PCR (TaqMan) using fluorescent labeled TaqMan probes. Anti-proliferation (IC50 values) activity of BNC4 on indicated cell lines was determined by MTS assay. Total alpha levels (al+a3) were plotted against (1/IC50) X100 values.

The test system of another data set is IGR-OV1. Description: Anti-proliferative activity, IGR-OV1. In kind it is cell-based. The conditions noted are these: Homo sapiens. The procedure: as §1
For the next data set, the system named is Na-K-ATPase. The data set is described as follows: Na-K-ATPase enzyme assay (inorganic phosphate liberated from ATP), pig brain. In kind it is biochemical. The conditions noted are these: pig brain. The procedure:
Compounds were tested for their activity on Na-K-ATPase enzyme in an in vitro enzyme assay. The ATPase activity was assayed as the amount of inorganic phosphate liberated from ATP by Dog Kidney or Porcine cerebral cortex Na-K-ATPase.

In another data set the test system is VEGF. The data set is described as follows: Hypoxia induced VEGF secretion (ELISA). The class given is cell-based. The conditions noted are these: hypoxic conditions, Hep3B, Caki-1 16 hours (FIG. 6). Here is the method: FIG. 6 is two graphs depicting the effect of BP228 and BP244 on secretion of VEGF. Caki-1 cells were treated with indicated compound and cultured under hypoxia for 16 hours. VEGF levels in conditioned medium were measured using an ELISA kit.
The decrease in HIF-1 correlated closely with declining levels of VEGF secretion. […] Caki-1 cells were treated with indicated compound and cultured under hypoxia for 16 hours. VEGF levels in conditioned medium were measured using an ELISA kit.
Background: An ELISA detects its analyte on a solid surface through an enzyme-linked reagent.

The subject of the next data set is Caki-1 tumors. The data set is described as follows: In vivo activity against renal cancer cell line Caki-1 xenograft. The conditions noted are these: Caki-1 bearing nude mice. Here is the method:
Female nude mice (nu/nu) between 5 and 6 weeks of age weighing approximately 20 g were implanted subcutaneously (s.c.) by trocar with fragments of human tumors harvested from s.c. grown tumors in nude mice hosts. When the tumors were approximately 60-75 mg in size (about 10-15 days following inoculation), the animals were pair-matched into treatment and control groups. Each group contained 8-10 mice. The administration of drugs or controls began on the day the animals were pair-matched (Day 1). Pumps (Alzet® Model 2002) with a flow rate of 0.5 μl/hr were implanted s.c. between the shoulder blades of each mice. Mice were weighed and tumor measurements were obtained using calipers twice weekly, starting Day 1. These tumor measurements were converted to mg tumor weight by standard formula, (W^2XL)/2. The experiment was terminated when the control group tumor size reached an average of about 1 gram. Upon termination, the mice were weighed, sacrificed and their tumors excised. The tumors were weighed and the mean tumor weight per group was calculated.

For the next data set, the system named is LnCaP. Description: Anti-proliferative activity, LnCaP. In kind it is cell-based. The conditions noted are these: Homo sapiens, read-out: Anti-Proliferative activity IC50. The procedure:
as §1

The next data set deals with HIF-1α and HIF-2α. Description: Induction of HIF-1α and HIF-2α during hypoxia (Western blotting). In kind it is cell-based. The conditions noted are these: for HIF-1α and HIF-2α protein expression: Caki-1, A549, Panc-1, Hep3B cells, hypoxia (1% O2) 4 hours, BNC4 0.1 μM, BP228 and BP244 0.1 and 1.0 μM; for protein expression of HIF-1β, NIK, Hsp90, DR4, Bcl-2 and β-actin: same cells and treatment, specificity. The procedure: Caki-1 (renal cancer), A549 (lung cancer), Panc-1 (pancreatic cancer) and Hep3B (liver cancer) cells were treated with BNC4, BP228 and BP244 under hypoxic conditions. The cells were treated with indicated each compound for 4 hours under normoxic (N, 20% O2) or hypoxic (H, 1% O2) conditions. Expression of HIF-1α, HIF-1β and β-actin and other proteins was analyzed by Western blotting. The HIF-1α and HIF-2α protein levels increased in cells cultured under these conditions for 4 hours without any treatment. […] The inhibition was specific as levels of constitutively expressed HIF-1β were not affected by any of the drugs.
Background: A western blot detects proteins with antibodies after separation by electrophoresis.

The subject of another data set is CCRF-CEM. Description: Anti-proliferative activity, CCRF-CEM. The conditions noted are these: Homo sapiens, read-out: Anti-Proliferative activity IC50. In kind it is cell-based. The procedure:
as §1

A further data set has as its system A549. The data set is described as follows: cells. As to conditions: Homo sapiens. The class given is cell-based. The procedure: as §1
The next data set relates to Caki-1 (CAKI). The data set is described as follows: cells. The class given is cell-based. The conditions noted are these: Homo sapiens. Here is the method:
as §1

A further data set relates to SNB-78. Description: Anti-proliferative activity, SNB-78. In kind it is cell-based. The conditions noted are these: Homo sapiens. Here is the method:
as §1

For data set [1], the system named is HIF-1α. Description: Inhibition of HIF-1α induced under normoxia by PHD inhibitor L-mimosone (Western blotting). The class given is cell-based. The conditions noted are these: Hep3B cells, 200 μM L-mimosone 18 hours. The procedure: Abundance of HIF1α and β-actin was determined by Western blotting.
Data set [2] relates to HIF-1α. The data set is described as follows: Inhibition of hypoxia-mediated HIF-1α induction (immunoblotting). In kind it is cell-based, human. As to conditions: Caki-1 or Panc-1 cells under hypoxia.
For data set [3] the following is noted: cited from earlier work.
[4] abbreviates: SNB-75, read-out: Anti-Proliferative activity IC50.
[5] abbreviates: IGROV-1, read-out: Anti-Proliferative activity IC50.
The mark [6] stands for this setting: A549, read-out: Anti-Proliferative activity IC50.
Setting [7] is: CAKI-1, read-out: Anti-Proliferative activity IC50.
The mark [8] stands for this setting: SNB-78, read-out: Anti-Proliferative activity IC50.

These results are taken from patent US20090023666A1, “Modulators of Hypoxia Inducible Factor-1 and Related Uses” (priority 2006, published 2009).

Entries after “also recorded” stand apart in the source; their conditions may differ. Where two headings read alike, the source gives them in different places.

Broadly, the IC50 is the point on the concentration scale where inhibition reaches its midpoint.

Take `C[C@@H]1O[C@@H](O[C@@H]2C=C3CC[C@@H]4[C@H](CC[C@]5(C)[C@@H](c6ccc(=O)oc6)CC[C@]45O)[C@@]3(C)CC2)[C@H](O)[C@H](O)[C@H]1N` [BP244]: the concentration for half-maximal inhibition (IC50) in the data set on SNB-75 (setting [4]) stood at 12.9 nM; in the data set with IGR-OV1 (setting [5]) it was 12.1 nM; on Na-K-ATPase (FIG. 9, read-out: IC50, Na-K-ATPase) it was 98000 nM; in the data set on LnCaP (LNCaP), 13.8 nM; in the data set with CCRF-CEM, 4.7 nM; with A549 (setting [6]), 4.8 nM. Further, the IC50 was found to be 8 nM in the data set with Caki-1 (CAKI) (setting [7]) and 7.7 nM in the data set with SNB-78 (setting [8]). Also, the “activity on Na-K-ATPase relative to BP228” value with Na-K-ATPase is on record as “twice as active as BP228”. Moreover, the VEGF secretion entry in the data set with VEGF is given as “reduce VEGF secretion”. In addition, the adverse effects entry in the data set with Caki-1 tumors (15 mg/ml pump) was “without any adverse effects”. In addition, in the data set with Caki-1 tumors (15 mg/ml, s.c. Alzet pump 0.5 μl/hr), the “tumor growth inhibition (TGI)” value is listed as 83%. In addition, the “HIF-1α and HIF-2α protein expression” value in the data set with HIF-1α and HIF-2α is “inhibition of hypoxia-mediated HIF-1α induction; also recorded: almost complete inhibition”. Besides, the “protein expression of HIF-1β, NIK, Hsp90, DR4, Bcl-2 and β-actin” value (shortened to “protein expression of HIF-1β, NIK, Hsp90”) in the data set on HIF-1α and HIF-2α is given as “no effect”.
As to `C[C@@H]1O[C@@H](O[C@@H]2C=C3CC[C@@H]4[C@H](CC[C@]5(C)[C@@H](c6ccc(=O)oc6)CC[C@]45O)[C@@]3(C)CC2)[C@H](O)[C@H](O)[C@H]1O` [BNC4, proscillaridin, reference compound], the IC50 worked out at 16.8 nM in the data set with SNB-75 (SNB-75, CNS, read-out: Anti-Proliferative activity IC50); 12.3 nM in the data set with IGR-OV1 (IGROV-1, IGR-OV1, Ovarian, read-out: Anti-Proliferative activity IC50); 16.7 nM in the data set on LnCaP (LnCaP, Prostate); 6.3 nM with CCRF-CEM (Leukemia); 3.5 nM in the data set with A549 (A549, NSCL, read-out: Anti-Proliferative activity IC50); 7.5 nM in the data set with Caki-1 (CAKI) (CAKI-1, CAKI, Renal, read-out: Anti-Proliferative activity IC50). Further, the IC50 in the data set with SNB-78 (SNB-78, CNS, read-out: Anti-Proliferative activity IC50) was found to be 10.1 nM. For the same compound, in the data set on HIF-1α [1], the “HIF-1α accumulation by L-mimosone” value is “blocks HIF-1α induction; also recorded: eliminated HIF-1α accumulation by L-mimosone”. For the same compound, the “potency in inhibiting HIF-1α expression relative to BNC1” value in the data set with HIF-1α [2] is “about 10 times”. In addition, the VEGF secretion result in the data set with VEGF is recorded as “reduce VEGF secretion”. Further, the “plasma half-life in human” value in [3] (human, according to the literature) was “about 40 hours”. The max. plasma concentration result in [3] (in vivo) is “about 0.1 μg/mL”. In addition, the “HIF-1α and HIF-2α protein expression” value in the data set on HIF-1α and HIF-2α is “inhibition of hypoxia-mediated HIF-1α induction; also recorded: almost complete inhibition”. The “protein expression of HIF-1β, NIK, Hsp90” value in the data set with HIF-1α and HIF-2α is recorded as “no effect”.
For `C[C@]12CC/C(=N\OCCN3CCCCC3)C=C1CC[C@@H]1[C@@H]2CC[C@]2(C)[C@@H](c3ccc(=O)oc3)CC[C@]12O` [BP228], the half-maximal inhibitory concentration (IC50) in the data set on SNB-75 (setting [4]) amounted to 19.2 nM; with IGR-OV1 (setting [5]), 31.9 nM; with LnCaP (LNCaP), 39.2 nM; in the data set on CCRF-CEM it was 7 nM; in the data set on A549 (setting [6]) it was 7.3 nM; with Caki-1 (CAKI) (setting [7]), 13 nM. In addition, the IC50 in the data set with SNB-78 (setting [8]) was found to be 15.9 nM. Also, the VEGF secretion entry in the data set on VEGF is given as “Attenuate Hypoxia Induced VEGF Secretion”. Besides, the “HIF-1α and HIF-2α protein expression” value in the data set with HIF-1α and HIF-2α was “inhibition of hypoxia-mediated HIF-1α induction; also recorded: almost complete inhibition”. The “protein expression of HIF-1β, NIK, Hsp90” value in the data set with HIF-1α and HIF-2α was “no effect”.
